Key:
Assay type in all cases: biochemical
Settings in all cases: ADP-Glo SIK kinase assay
SIK1 = biological target: T1, SIK1 (Homo sapiens, UniProt P57059); experiment: ADP-Glo kinase assay, SIK1
T1 construct: purchased Carna Biosciences 02-131
Summary of the method: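 Wells with 1% DMSO or 10 μM staurosporine (final) define the control window. The kinase reaction with substrate and ATP runs 120 min at RT, followed by ADP-Glo detection: ATP depletion (40 min) and ADP-derived luminescence (30 min).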

SIK2 = biological target: T2, SIK2 (Homo sapiens, UniProt Q9H0K1); experiment: ADP-Glo kinase assay, SIK2
T2 construct: purchased ThermoFisher Scientific PV4792
T2 sequence (Q9H0K1 whole entry): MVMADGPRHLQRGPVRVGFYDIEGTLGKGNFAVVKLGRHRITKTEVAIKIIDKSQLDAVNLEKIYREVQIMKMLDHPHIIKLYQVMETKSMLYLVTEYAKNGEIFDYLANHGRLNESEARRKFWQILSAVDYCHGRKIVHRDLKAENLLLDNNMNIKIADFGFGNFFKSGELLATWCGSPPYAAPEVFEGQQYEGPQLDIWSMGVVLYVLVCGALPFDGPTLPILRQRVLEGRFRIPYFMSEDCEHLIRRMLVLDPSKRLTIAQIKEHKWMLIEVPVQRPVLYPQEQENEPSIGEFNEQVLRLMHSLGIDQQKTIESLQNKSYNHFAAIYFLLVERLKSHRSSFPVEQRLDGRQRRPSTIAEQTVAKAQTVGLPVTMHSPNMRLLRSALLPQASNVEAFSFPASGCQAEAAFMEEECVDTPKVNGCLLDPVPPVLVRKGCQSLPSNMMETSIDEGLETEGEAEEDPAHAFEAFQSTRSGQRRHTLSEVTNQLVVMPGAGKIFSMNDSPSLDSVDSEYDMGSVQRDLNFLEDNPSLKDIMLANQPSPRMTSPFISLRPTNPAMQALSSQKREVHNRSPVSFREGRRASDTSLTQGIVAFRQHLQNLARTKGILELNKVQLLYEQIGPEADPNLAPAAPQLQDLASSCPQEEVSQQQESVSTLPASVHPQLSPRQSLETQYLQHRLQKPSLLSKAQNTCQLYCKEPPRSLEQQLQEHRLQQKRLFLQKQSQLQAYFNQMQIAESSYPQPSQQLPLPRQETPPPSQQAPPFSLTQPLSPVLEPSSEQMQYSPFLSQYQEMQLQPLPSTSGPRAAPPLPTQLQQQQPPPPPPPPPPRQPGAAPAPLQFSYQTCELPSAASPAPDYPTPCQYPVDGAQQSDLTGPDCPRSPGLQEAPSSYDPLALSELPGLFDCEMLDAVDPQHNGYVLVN
Summary of the method: (§1)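 ADP-Glo, RT throughout. Enz/substrate + ATP, 120 min; ADP-Glo reagent 40 min (ATP depletion); detection reagent 30 min; luminescence read. Neg ctrl 1% DMSO, pos ctrl 10 μM staurosporine, final concs.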

SIK3 = biological target: T3, SIK3 (Homo sapiens, UniProt Q9Y2K2); experiment: ADP-Glo kinase assay, SIK3
T3 construct: purchased SignalChem S12-11G-100
T3 sequence (Q9Y2K2 whole entry): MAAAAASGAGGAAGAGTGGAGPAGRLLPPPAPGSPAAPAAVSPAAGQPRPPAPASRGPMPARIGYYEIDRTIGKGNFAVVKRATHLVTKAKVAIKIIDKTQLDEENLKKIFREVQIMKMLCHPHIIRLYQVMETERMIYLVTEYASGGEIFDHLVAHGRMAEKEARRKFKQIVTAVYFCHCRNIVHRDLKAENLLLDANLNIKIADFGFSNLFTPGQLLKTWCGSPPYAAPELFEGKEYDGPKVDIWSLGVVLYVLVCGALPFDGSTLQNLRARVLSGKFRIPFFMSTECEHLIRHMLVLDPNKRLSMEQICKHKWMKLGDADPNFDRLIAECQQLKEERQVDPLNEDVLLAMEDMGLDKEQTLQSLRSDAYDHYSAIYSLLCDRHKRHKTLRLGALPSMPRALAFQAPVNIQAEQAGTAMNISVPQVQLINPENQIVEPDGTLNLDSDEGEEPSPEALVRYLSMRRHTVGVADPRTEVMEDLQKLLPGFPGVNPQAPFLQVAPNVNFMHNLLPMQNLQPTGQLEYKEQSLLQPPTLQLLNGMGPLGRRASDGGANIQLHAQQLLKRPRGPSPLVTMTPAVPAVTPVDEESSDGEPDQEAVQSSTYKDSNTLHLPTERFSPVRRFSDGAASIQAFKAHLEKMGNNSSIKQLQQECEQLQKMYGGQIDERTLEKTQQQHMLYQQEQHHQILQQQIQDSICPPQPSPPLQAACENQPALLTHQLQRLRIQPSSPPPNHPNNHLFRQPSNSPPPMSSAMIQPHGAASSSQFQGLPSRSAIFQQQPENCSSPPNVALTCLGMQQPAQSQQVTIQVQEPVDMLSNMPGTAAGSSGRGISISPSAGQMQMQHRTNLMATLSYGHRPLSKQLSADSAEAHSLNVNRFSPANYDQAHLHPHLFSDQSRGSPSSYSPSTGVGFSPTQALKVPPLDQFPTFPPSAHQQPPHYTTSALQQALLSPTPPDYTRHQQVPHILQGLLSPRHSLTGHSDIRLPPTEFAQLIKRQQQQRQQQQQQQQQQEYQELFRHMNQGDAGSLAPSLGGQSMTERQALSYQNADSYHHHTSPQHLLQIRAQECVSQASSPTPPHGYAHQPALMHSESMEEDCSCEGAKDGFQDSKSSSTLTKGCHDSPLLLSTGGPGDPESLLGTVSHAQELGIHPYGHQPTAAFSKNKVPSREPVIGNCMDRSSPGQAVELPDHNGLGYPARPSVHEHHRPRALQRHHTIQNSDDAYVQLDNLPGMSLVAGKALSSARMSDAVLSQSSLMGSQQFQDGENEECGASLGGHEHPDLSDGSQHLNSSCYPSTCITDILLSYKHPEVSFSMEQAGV
Summary of the method: as §1

T1 sequence (P57059 whole entry): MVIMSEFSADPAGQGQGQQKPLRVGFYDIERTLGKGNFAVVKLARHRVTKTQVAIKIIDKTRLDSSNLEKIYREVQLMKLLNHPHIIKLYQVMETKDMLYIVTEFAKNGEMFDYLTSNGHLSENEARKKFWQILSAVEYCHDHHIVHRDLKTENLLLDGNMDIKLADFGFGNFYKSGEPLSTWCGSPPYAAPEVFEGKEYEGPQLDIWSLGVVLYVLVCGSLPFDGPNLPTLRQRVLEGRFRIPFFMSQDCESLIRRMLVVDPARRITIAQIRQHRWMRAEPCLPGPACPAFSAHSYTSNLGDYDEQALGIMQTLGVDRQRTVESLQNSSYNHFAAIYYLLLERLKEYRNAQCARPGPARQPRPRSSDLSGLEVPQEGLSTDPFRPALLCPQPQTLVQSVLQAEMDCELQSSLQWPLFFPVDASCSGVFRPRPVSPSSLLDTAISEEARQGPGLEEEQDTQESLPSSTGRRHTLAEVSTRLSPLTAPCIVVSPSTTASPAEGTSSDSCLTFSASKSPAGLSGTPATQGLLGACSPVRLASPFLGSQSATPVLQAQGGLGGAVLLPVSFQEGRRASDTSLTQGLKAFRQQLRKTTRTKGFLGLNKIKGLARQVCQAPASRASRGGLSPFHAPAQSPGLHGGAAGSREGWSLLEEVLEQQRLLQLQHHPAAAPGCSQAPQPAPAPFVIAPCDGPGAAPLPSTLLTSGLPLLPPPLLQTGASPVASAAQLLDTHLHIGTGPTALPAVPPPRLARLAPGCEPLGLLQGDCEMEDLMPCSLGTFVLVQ

IC50 (SIK1) [nM]	IC50 (SIK2) [nM]	IC50 (SIK3) [nM]	SMILES
10 to 100	0.01 to 10	0.01 to 10	COc1cc(-c2cnc3cc(OC[C@@H](N)C4CCCCC4)ccn23)cc(OC(F)F)c1C(=O)NC1CC1 [compound 133, 4-[7-[(2S)-2-amino-2-cyclohexyl-ethoxy]imidazo[1,2-a]pyridin-3-yl]-N-cyclopropyl-2-(difluoromethoxy)-6-methoxy-benzamide]
10 to 100	0.01 to 10	0.01 to 10	COc1cc(-c2cnc3cc(OCC(N)C4CCOC4)ccn23)cc(OC(F)F)c1C(=O)NC1CC1 (stereo not drawn) [compound 134, 4-[7-(2-amino-2-tetrahydrofuran-3-yl-ethoxy)imidazo[1,2-a]pyridin-3-yl]-N-cyclopropyl-2-(difluoromethoxy)-6-methoxy-benzamide]
10 to 100	0.01 to 10	0.01 to 10	COc1cc(-c2cnc3cc(OCC(N)C4CCOCC4)ccn23)cc(OC(F)F)c1C(=O)NC1CC1 (stereo not drawn) [compound 135, 4-[7-(2-amino-2-tetrahydropyran-4-yl-ethoxy)imidazo[1,2-a]pyridin-3-yl]-N-cyclopropyl-2-(difluoromethoxy)-6-methoxy-benzamide]
10 to 100	0.01 to 10	0.01 to 10	COc1cc(-c2cnc3cc(OCC(N)C4CCCO4)ccn23)cc(OC(F)F)c1C(=O)NC1CC1 (stereo not drawn) [compound 136, 4-[7-(2-amino-2-tetrahydrofuran-2-yl-ethoxy)imidazo[1,2-a]pyridin-3-yl]-N-cyclopropyl-2-(difluoromethoxy)-6-methoxy-benzamide]
10 to 100	0.01 to 10	0.01 to 10	COc1cc(-c2cnc3cc(OCC(N)C4CC4)ccn23)cc(OC(F)F)c1C(=O)NC1CC1 (stereo not drawn) [compound 137, 4-[7-(2-amino-2-cyclopropyl-ethoxy)imidazo[1,2-a]pyridin-3-yl]-N-cyclopropyl-2-(difluoromethoxy)-6-methoxy-benzamide]
> 500	10 to 100	100 to 500	CCOc1cc(-c2cnc3cc(OCCN(C)C)ccn23)cc2c1C(=O)N(CC(F)(F)F)CC2 [compound 140, 6-[7-[2-(dimethylamino)ethoxy]imidazo[1,2-a]pyridin-3-yl]-8-ethoxy-2-(2,2,2-trifluoroethyl)-3,4-dihydroisoquinolin-1-one]
0.01 to 10	0.01 to 10	0.01 to 10	COc1cc(-c2cnc3cc(OCC4CCCN(C=O)C4)ccn23)cc(OC(F)F)c1C(=O)NC1CC1 (stereo not drawn) [compound 142, N-cyclopropyl-2-(difluoromethoxy)-4-[7-[(1-formyl-3-piperidyl)methoxy]imidazo [1,2-a]pyridin-3-yl]-6-methoxy-benzamide]
0.01 to 10	0.01 to 10	0.01 to 10	COc1cc(-c2cnc3cc(OCC4CCCNC4)ccn23)cc(OC(F)F)c1C(=O)NC1CC1 (stereo not drawn) [compound 143, N-cyclopropyl-2-(difluoromethoxy)-6-methoxy-4-[7-(3-piperidylmethoxy)imidazo[1,2-a]pyridin-3-yl]benzamide]
10 to 100	0.01 to 10	0.01 to 10	COc1cc(-c2cnc3cc(OCC4CCN(C)C4)ccn23)cc(OC(F)F)c1C(=O)NC1CC1 (stereo not drawn) [compound 144, N-cyclopropyl-2-(difluoromethoxy)-6-methoxy-4-[7-[(1-methylpyrrolidin-3-yl)methoxy]imidazo[1,2-a]pyridin-3-yl]benzamide]
100 to 500	10 to 100	10 to 100	COc1cc(-c2cnc3cc(Oc4ccccn4)ccn23)cc(OC(F)F)c1C(=O)NC1CC1 [compound 145, N-cyclopropyl-2-(difluoromethoxy)-6-methoxy-4-[7-(2-pyridyloxy)imidazo[1,2-a]pyridin-3-yl]benzamide]
> 500	10 to 100	10 to 100	CN(C)CCOc1ccn2c(-c3cc(F)c(C(=O)NC4CC4)c(OC(F)F)c3)cnc2c1 [compound 146, N-cyclopropyl-2-(difluoromethoxy)-4-[7-[2-(dimethylamino)ethoxy]imidazo[1,2-a]pyridin-3-yl]-6-fluoro-benzamide]
100 to 500	0.01 to 10	0.01 to 10	COc1cc(-c2cnc3cc(OCC4CCCCN4C(C)C)ccn23)cc(OC(F)F)c1C(=O)NC1CC1 (stereo not drawn) [compound 148, N-cyclopropyl-2-(difluoromethoxy)-4-[7-[(1-isopropyl-2-piperidyl)methoxy]imidazo [1,2-a]pyridin-3-yl]-6-methoxy-benzamide]
10 to 100	10 to 100	0.01 to 10	COc1cc(-c2cnc3cc(OCC4CCCCN4CC(F)F)ccn23)cc(OC(F)F)c1C(=O)NC1CC1 (stereo not drawn) [compound 149, N-cyclopropyl-4-[7-[[1-(2,2-difluoroethyl)-2-piperidyl]methoxy]imidazo [1,2-a]pyridin-3-yl]-2-(difluoromethoxy)-6-methoxy-benzamide]
10 to 100	10 to 100	0.01 to 10	COc1cc(-c2cnc3cc(OC4COC4)ccn23)cc(OC(F)F)c1C(=O)NC1CC1 [compound 152, N-cyclopropyl-2-(difluoromethoxy)-6-methoxy-4-[7-(oxetan-3-yloxy)imidazo[1,2-a]pyridin-3-yl]benzamide]
> 500	10 to 100	10 to 100	CN(C)CCOc1ccn2c(-c3cc(F)c(C(=O)NCC(F)(F)F)c(OC(F)F)c3)cnc2c1 [compound 155, 2-(difluoromethoxy)-4-[7-[2-(dimethylamino)ethoxy]imidazo[1,2-a]pyridin-3-yl]-6-fluoro-N-(2,2,2-trifluoroethyl)benzamide]
100 to 500	100 to 500	0.01 to 10	COc1cc(-c2cnc3cc(Oc4ccccc4)ccn23)cc(OC(F)F)c1C(=O)NC1CC1 [compound 157, N-cyclopropyl-2-(difluoromethoxy)-6-methoxy-4-(7-phenoxyimidazo[1,2-a]pyridin-3-yl)benzamide]

SMILES	IC50 (SIK1) [nM]	IC50 (SIK2) [nM]	IC50 (SIK3) [nM]
CCC(N)COc1ccn2c(-c3cc(OC)c(C(=O)NC4CC4)c(OC(F)F)c3)cnc2c1 (stereo not drawn) [compound 131, 4-[7-(2-aminobutoxy)imidazo[1,2-a]pyridin-3-yl]-N-cyclopropyl-2-(difluoromethoxy)-6-methoxy-benzamide]	10 to 100	0.01 to 10	0.01 to 10
COc1cc(-c2cnc3cc(OC[C@@H](N)CC(C)C)ccn23)cc(OC(F)F)c1C(=O)NC1CC1 [compound 132, 4-[7-[(2S)-2-amino-4-methyl-pentoxy]imidazo[1,2-a]pyridin-3-yl]-N-cyclopropyl-2-(difluoromethoxy)-6-methoxy-benzamide]	10 to 100	0.01 to 10	0.01 to 10
COc1cc(-c2cnc3cc(OC4CCC4)ccn23)cc(OC(F)F)c1C(=O)NC1CC1 [compound 151, 4-[7-(cyclobutoxy)imidazo[1,2-a]pyridin-3-yl]-N-cyclopropyl-2-(difluoromethoxy)-6-methoxy-benzamide]	10 to 100	0.01 to 10	0.01 to 10
CNC1CC(Oc2ccn3c(-c4cc(OC)c(C(=O)NC5CC5)c(OC(F)F)c4)cnc3c2)C1 (stereo not drawn) [compound 161, N-cyclopropyl-2-(difluoromethoxy)-6-methoxy-4-[7-[3-(methylamino)cyclobutoxy]imidazo[1,2-a]pyridin-3-yl]benzamide]	10 to 100	0.01 to 10	0.01 to 10

— patent US12264156B2, “Compounds and pharmaceutical compositions thereof for the treatment of diseases” (GALAPAGOS NV, priority 2018, dated 2025)
